In series [1] the target is FIH (Homo sapiens, UniProt Q9NWT6). As to the kind of experiment: FIH assay, MALDI-TOF MS detection of hydroxylation. The series is classed as biochemical.
The subject of series [2] is PHD enzymes in HeLa cells. As to the kind of experiment: HIFα Western blot in HeLa cells (activity of PHD enzymes in cells). To be noted: HeLa cells treated 5 h, anti-HIF-1α Western blot. The series is classed as cell-based, human. As to the method: supplemented with 80 µM Zn(II), 70 µM of inhibitor, all in 50 mM Tris-d11, pH 7.5, 10 % D2O, […]
Cell Culture and Immunoblotting
HeLa cells were cultured in DMEM media supplemented with 10 % fetal bovine serum, 4 mM L-glutamine, 100 U/mL penicillin, and 100 µg/mL streptomycin. Cells were treated with the indicated compounds, prepared in 1% DMSO, for 5 h. Following a PBS buffer rinse, cells were lysed in urea/SDS buffer supplemented with 1 mM dithiothreitol. Cell extracts were analyzed by SDS-PAGE, electroblotted onto PVDF membranes (Millipore) and probed with anti-HIF-1α antibody (clone 54, BD Transduction Laboratories) at 1:1000 dilution for 1 h at room temperature. The HRP-conjugated secondary antibody was then applied at room temperature for 1 h. Target proteins were detected with SuperSignal Chemiluminescent […]
ADMET in vitro Predictors
S9 liver microsome stability assays and MDCK-MDR1 efflux assays were carried out for CCT3 and CCT4 by Cyprotex (UK). Additional details are provided later in the Supporting

The target of series [3] is T1, KDM4A (Homo sapiens, UniProt O75164).
T1 sequence (O75164 1-1064): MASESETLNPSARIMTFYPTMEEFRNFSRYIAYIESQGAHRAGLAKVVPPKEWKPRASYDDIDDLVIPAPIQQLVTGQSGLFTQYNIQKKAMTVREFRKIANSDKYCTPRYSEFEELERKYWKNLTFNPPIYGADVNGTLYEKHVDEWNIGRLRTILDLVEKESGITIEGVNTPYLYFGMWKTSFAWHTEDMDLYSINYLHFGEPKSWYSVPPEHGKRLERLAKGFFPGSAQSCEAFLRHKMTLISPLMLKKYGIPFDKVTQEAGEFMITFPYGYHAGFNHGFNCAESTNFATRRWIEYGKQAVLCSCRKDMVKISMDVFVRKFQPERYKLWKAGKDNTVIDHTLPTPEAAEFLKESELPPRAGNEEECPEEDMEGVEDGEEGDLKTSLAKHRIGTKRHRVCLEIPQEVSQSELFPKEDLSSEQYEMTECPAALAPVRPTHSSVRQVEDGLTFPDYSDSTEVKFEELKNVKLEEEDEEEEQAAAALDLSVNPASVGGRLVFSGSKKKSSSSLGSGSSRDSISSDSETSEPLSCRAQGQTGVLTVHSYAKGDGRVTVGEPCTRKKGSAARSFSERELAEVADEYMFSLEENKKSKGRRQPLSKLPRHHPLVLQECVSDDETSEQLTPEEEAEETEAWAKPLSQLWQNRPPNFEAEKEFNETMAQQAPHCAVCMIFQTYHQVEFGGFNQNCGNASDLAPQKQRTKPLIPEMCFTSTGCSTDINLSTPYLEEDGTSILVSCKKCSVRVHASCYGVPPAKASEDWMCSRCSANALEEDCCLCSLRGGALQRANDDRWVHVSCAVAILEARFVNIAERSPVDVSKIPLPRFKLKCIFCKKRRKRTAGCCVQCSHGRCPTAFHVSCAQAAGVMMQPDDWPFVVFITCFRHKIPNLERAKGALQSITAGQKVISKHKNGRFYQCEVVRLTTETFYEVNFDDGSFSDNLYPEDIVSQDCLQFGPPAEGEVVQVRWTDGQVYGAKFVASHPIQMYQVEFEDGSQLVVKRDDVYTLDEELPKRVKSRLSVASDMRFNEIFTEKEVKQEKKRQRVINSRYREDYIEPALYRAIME
Kind of series: KDM4A formaldehyde dehydrogenase (FDH) assay. The series is classed as biochemical. As to the method: reactions were quenched after 4 min. KDM4A inhibition was tested as described previously using a formaldehyde dehydrogenase (FDH) assay.[9] JARID1B and JARID1C inhibition was tested as described previously using reported AlphaScreen-based assays.[10] MINA531-464 and NO66116-641 were cloned into pFB-LIC-Bse, and the N-terminal His-tagged proteins were produced in Sf9 insect cells. The MINA53 peptide substrate Rpl27a […]
(Gly31 – Pro49 […]) and the NO66 peptide substrate Rpl8
(Asn205 – Thr224 […]) were synthesized by Peptide Protein
Research Ltd (Fareham, Hampshire, UK) to >95% purity. IC50 determinations were performed in 384-well polypropylene plates (Greiner Bio One, Cat Number 781096), and compound dispenses were performed using an ECHO 550 acoustic dispenser (Labcyte, Sunnyvale, CA).
NO66 (diluted to 375 nM in 50 mM MES pH 7.0, 150 mM NaCl) and MINA53 (diluted to 187.5 nM in 50 mM HEPES pH 7.5, 50 mM NaCl) were dispensed (40 µL) into 384-well compound plates using a multidrop combi reagent dispenser (Thermo Scientific, Code 5840300) with a small tube plastic tip dispensing cassette (Thermo Scientific, Code 24073290).
NO66 and MINA53 were pre-incubated with compound for 15 minutes, and the enzyme reaction initiated by dispensing 10 µL of substrate solution [250 µM (NH4)2Fe(SO4)2, 500 µM sodium ascorbate, 25 µM 2OG, 25 µM peptide] in optimized enzyme buffer. […]

This note sets out measurements from paper PMC6471485, “Selective Inhibitors of a Human Prolyl Hydroxylase (OGFOD1) Involved in Ribosomal Decoding” (Chemistry (Weinheim an Der Bergstrasse, Germany), 2019).

pIC50: −log10 of the molar value.

Sequence of FIH (Q9NWT6 whole entry): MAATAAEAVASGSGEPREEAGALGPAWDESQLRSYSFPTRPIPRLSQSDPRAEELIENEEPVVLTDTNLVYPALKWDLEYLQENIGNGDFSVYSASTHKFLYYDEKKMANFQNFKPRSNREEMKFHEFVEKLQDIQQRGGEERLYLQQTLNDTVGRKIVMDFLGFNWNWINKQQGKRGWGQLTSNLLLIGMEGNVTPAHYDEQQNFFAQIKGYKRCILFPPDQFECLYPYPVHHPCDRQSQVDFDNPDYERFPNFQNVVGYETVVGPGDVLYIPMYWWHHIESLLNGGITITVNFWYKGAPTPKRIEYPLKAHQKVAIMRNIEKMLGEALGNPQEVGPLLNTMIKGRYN

What is called pIC50 is −log10 of the IC50, conventionally taken in molar units. Low readings indicate a high IC50, high ones a low IC50. The term melting point denotes the temperature, or range, at which the solid turns liquid. With `Cn1c(O)c(C(=O)CCc2cccs2)c(=O)n(C)c1=O` [compound 42], the melting point was 91 °C. Besides, in series [1], the pIC50 is < 4.00. Further, in series [2], the “HIFα stabilization in HeLa cells, in words” value is given as “did not stabilize HIFα”. Also, in series [3], the negative logarithm of the IC50 (pIC50) was < 4.00.
In the case of `Cn1c(O)c(C(=O)CCc2ccccc2)c(=O)n(C)c1=O` [compound 26], the pIC50 in series [1] and in series [3] was < 4.00 in each case. The “HIFα stabilization in HeLa cells, in words” value in series [2] is “did not stabilize HIFα”.
